The test concerns the target Anti-alpha galactosyl IgG antibody. The test can be described thus: ELISA assay: streptavidin-captured biotin compound, binding of anti-alpha galactosyl IgG antibody. Details: species or system human. The conditions noted are these: geometric mean with standard error in brackets; streptavidin plate, anti-alpha galactosyl IgG 0.5 μg/mL; read-out: Concentration at half maximal binding. The procedure: Compounds containing F (representing a carbohydrate molecule capable of binding to a human anti-alpha-galactosyl antibody) and L (as biotin) were assayed for binding at both ends of the compound using an enzyme-linked immunosorbent assay (ELISA). Streptavidin-coated plates captured biotin to the surface of the plate and the binding of anti-alpha galactosyl antibodies to the alpha-galactosyl moiety was reported by a secondary antibody labelled with HRP (Horse Radish Peroxidase).
Compounds were titrated 1.5 fold from a top dose of 50 nM in phosphate buffered saline (PBS) (Sigma D8537)+0.025% DMSO (Dimethyl Sulphoxide, Sigma D8418). Streptavidin immobilizer 96-well plates (nunc 436014) were coated with 100 μL of compound at room temperature for 2 hours shaking at 500 rpm. Plates were washed with 2×200 μL PBS-T (PBS with 0.05% Tween 20 (Sigma P9416)) and 1×200 μL PBS-T with a 5 minute incubation shaking at room temperature, prior to being blocked for 1 hour at room temperature with 1% Bovine Serum Albumin (BSA, Sigma A2153) in PBS-T. After removing the blocking buffer, 50 μL of Anti-alpha galactosyl IgG antibody (Anti-alpha-galactosyl antibody was purified from human IVIG (Gammagard) by affinity purification using an alpha-galactosyl-HSA (Human Serum Albumin) sepharose column by Rockland Immunochemicals Inc.) at 0.5 μg/mL in PBS-T+1% BSA and incubated shaking at room temperature for 1 hour.
Plates were washed 2×200 μL PBS-T and 3×200 μL PBS-T with a 5 minute incubation, shaking at room temperature before the addition of 50 μL 1:5000 Goat Anti-Human IgG-HRP (horseradish peroxidase) conjugate (Abcam ab97175). The plates were incubated shaking at room temperature for 1 hour before a final wash of 2×200 μL PBS-T and 3×200 μl PBS-T with a 5 minute incubation shaking at room temperature. 100 μL TMB buffer (3,3′,5,5′-tetramethylbenzidine, a chromogenic substrate for horseradish peroxidase) (Pierce 34021) was added to the plate and allowed to develop for 5-10 minutes before the samples were quenched with 50 μL 2M sulfuric acid (Sigma 258105). The absorbance was read at 450 nm on an Envision plate reader (Perkin Elmer). Results from wells (duplicate) were averaged and the 50% binding affinity calculated.
The concentration at which half-maximal binding is achieved is reported as a geometric mean with standard error in brackets. The number of independent experiments is also reported. In order to achieve a signal both ends of the molecule are required to bind (biotin to streptavidin and alpha-galactosyl to anti-alpha galactosyl antibodies) simultaneously.
Consider `CC(=O)N[C@H]1[C@H](OCCCNC(=O)COc2cccc(CNC(=O)CCCCC(=O)NCCNC(=O)CCCC[C@@H]3SC[C@@H]4NC(=O)N[C@@H]43)c2)O[C@H](CO)[C@@H](O[C@@H]2O[C@H](CO)[C@H](O)[C@H](O[C@H]3O[C@H](CO)[C@H](O)[C@H](O)[C@H]3O)[C@H]2O)[C@@H]1O` [Example 12, N^1-(3-(2-((3-(((2R,3R,4R,5S,6R)-3-Acetamido-5-(((2S,3R,4S,5S,6R)-3,5-dihydroxy-6-(hydroxymethyl)-4-(((2R,3R,4S,5R,6R)-3,4,5-trihydroxy-6-(hydroxymethyl)tetrahydro-2H-pyran-2-yl)oxy)tetrahydro-2H-pyran-2-yl)oxy)-4-hydroxy-6-(hydroxymethyl)tetrahydro-2H-pyran-2-yl)oxy)propyl)amino)-2-oxoethoxy)benzyl)-N6-(2-(5-((3aS,4S,6aR)-2-oxohexahydro-1H-thieno[3,4-d]imidazol-4-yl)pentanamido)ethyl)adipamide], for which the EC50 amounted to 37.3 nM.

In the case of `CC(=O)N[C@H]1[C@H](OCCCNC(=O)CCCCC(=O)NCc2cccc(C(=O)NCCNC(=O)CCCC[C@@H]3SC[C@@H]4NC(=O)N[C@@H]43)c2)O[C@H](CO)[C@@H](O[C@@H]2O[C@H](CO)[C@H](O)[C@H](O[C@H]3O[C@H](CO)[C@H](O)[C@H](O)[C@H]3O)[C@H]2O)[C@@H]1O` [Example 13, N^1-(3-(((2R,3R,4R,5S,6R)-3-Acetamido-5-(((2S,3R,4S,5S,6R)-3,5-dihydroxy-6-(hydroxymethyl)-4-(((2R,3R,4S,5R,6R)-3,4,5-trihydroxy-6-(hydroxymethyl)tetrahydro-2H-pyran-2-yl)oxy)tetrahydro-2H-pyran-2-yl)oxy)-4-hydroxy-6-(hydroxymethyl)tetrahydro-2H-pyran-2-yl)oxy)propyl)-N6-(3-((2-(5-((3aS,4S,6aR)-2-oxohexahydro-1H-thieno[3,4-d]imidazol-4-yl)pentanamido)ethyl)carbamoyl)benzyl)adipamide], the EC50 stood at 37.3 nM.

As to `CC(=O)N[C@H]1[C@H](OCCCNC(=O)COc2cccc(-c3cc(OCC(=O)NCCCO[C@@H]4O[C@H](CO)[C@@H](O[C@@H]5O[C@H](CO)[C@H](O)[C@H](O[C@H]6O[C@H](CO)[C@H](O)[C@H](O)[C@H]6O)[C@H]5O)[C@H](O)[C@H]4NC(C)=O)cc(C(=O)NCCNC(=O)CCCC[C@@H]4SC[C@@H]5NC(=O)N[C@@H]54)c3)c2)O[C@H](CO)[C@@H](O[C@@H]2O[C@H](CO)[C@H](O)[C@H](O[C@H]3O[C@H](CO)[C@H](O)[C@H](O)[C@H]3O)[C@H]2O)[C@@H]1O` [Example 14], the EC50 was found to be 11.9 nM.

For the compound `CC(=O)NC1C(OCCCNC(=O)COc2ccc(-c3cc(OCC(=O)NCCCOC4OC(CO)C(OC5OC(CO)C(O)C(OC6OC(CO)C(O)C(O)C6O)C5O)C(O)C4NC(C)=O)cc(C(=O)NCCNC(=O)CCOCCOCCOCCOCCOCCOCCOCCOCCOCCOCCOCCOCCNC(=O)CCCCC4SCC5NC(=O)NC54)c3)cc2)OC(CO)C(OC2OC(CO)C(O)C(OC3OC(CO)C(O)C(O)C3O)C2O)C1O` (stereo not drawn) [Example 15], the EC50 stood at 11.5 nM.

Consider `CC(=O)NC1C(OCCCNC(=O)COc2cc(OCC(=O)NCCCOC3OC(CO)C(OC4OC(CO)C(O)C(OC5OC(CO)C(O)C(O)C5O)C4O)C(O)C3NC(C)=O)cc(-c3cc(OCC(=O)NCCCOC4OC(CO)C(OC5OC(CO)C(O)C(OC6OC(CO)C(O)C(O)C6O)C5O)C(O)C4NC(C)=O)cc(C(=O)NCCNC(=O)CCOCCOCCOCCOCCOCCOCCOCCOCCOCCOCCOCCOCCNC(=O)CCCCC4SCC5NC(=O)NC54)c3)c2)OC(CO)C(OC2OC(CO)C(O)C(OC3OC(CO)C(O)C(O)C3O)C2O)C1O` (stereo not drawn) [Example 16], for which the EC50 was 8.4 nM.

As to `CC(=O)N[C@H]1[C@H](OCCCNCc2cccc(C(=O)NCCNC(=O)CCCC[C@@H]3SC[C@@H]4NC(=O)N[C@@H]43)c2)O[C@H](CO)[C@@H](O[C@@H]2O[C@H](CO)[C@H](O)[C@H](O[C@H]3O[C@H](CO)[C@H](O)[C@H](O)[C@H]3O)[C@H]2O)[C@@H]1O` [Example 17, 3-(((3-(((2R,3R,4R,5S,6R)-3-Acetamido-5-(((2S,3R,4S,5S,6R)-3,5-dihydroxy-6-(hydroxymethyl)-4-(((2R,3R,4S,5R,6R)-3,4,5-trihydroxy-6-(hydroxymethyl)tetrahydro-2H-pyran-2-yl)oxy)tetrahydro-2H-pyran-2-yl)oxy)-4-hydroxy-6-(hydroxymethyl)tetrahydro-2H-pyran-2-yl)oxy)propyl)amino)methyl)-N-(2-(5-((3aS,4S,6aR)-2-oxohexahydro-1H-thieno[3,4-d]imidazol-4-yl)pentanamido)ethyl)benzamide], the EC50 was found to be 17.7 nM.

`CC(=O)NC1C(OCCCNC(=O)CCOCCOCCOCCOCCNC(=O)COc2cc(OCC(=O)NCCOCCOCCOCCOCCC(=O)NCCCOC3OC(CO)C(OC4OC(CO)C(O)C(OC5OC(CO)C(O)C(O)C5O)C4O)C(O)C3NC(C)=O)cc(-c3cc(OCC(=O)NCCOCCOCCOCCOCCC(=O)NCCCOC4OC(CO)C(OC5OC(CO)C(O)C(OC6OC(CO)C(O)C(O)C6O)C5O)C(O)C4NC(C)=O)cc(C(=O)NCCNC(=O)CCCCC4SCC5NC(=O)NC54)c3)c2)OC(CO)C(OC2OC(CO)C(O)C(OC3OC(CO)C(O)C(O)C3O)C2O)C1O` (stereo not drawn) [Example 18]: the EC50 is 6.7 nM.

In the case of `CC(=O)NC1C(OCCCNC(=O)CCOCCOCCOCCOCCNC(=O)COc2cccc(C(=O)NCCNC(=O)CCOCCOCCOCCOCCOCCOCCOCCOCCOCCOCCOCCOCCNC(=O)CCCCC3SCC4NC(=O)NC43)c2)OC(CO)C(OC2OC(CO)C(O)C(OC3OC(CO)C(O)C(O)C3O)C2O)C1O` (stereo not drawn) [Example 19], the EC50 amounted to 11.8 nM.

Turning to `CC(=O)NC1C(OCCCNC(=O)CCOCCOCCOCCOCCNC(=O)COc2ccc(-c3cc(OCC(=O)NCCOCCOCCOCCOCCC(=O)NCCCOC4OC(CO)C(OC5OC(CO)C(O)C(OC6OC(CO)C(O)C(O)C6O)C5O)C(O)C4NC(C)=O)cc(C(=O)NCCNC(=O)CCCCC4SCC5NC(=O)NC54)c3)cc2)OC(CO)C(OC2OC(CO)C(O)C(OC3OC(CO)C(O)C(O)C3O)C2O)C1O` (stereo not drawn) [Example 20], the EC50 was determined as 14.8 nM.

As to `CC(=O)NC1C(OCCCNC(=O)CCOCCOCCOCCOCCNC(=O)COc2cc(OCC(=O)NCCOCCOCCOCCOCCC(=O)NCCCOC3OC(CO)C(OC4OC(CO)C(O)C(OC5OC(CO)C(O)C(O)C5O)C4O)C(O)C3NC(C)=O)cc(C(=O)NCCNC(=O)CCOCCOCCOCCOCCOCCOCCOCCOCCOCCOCCOCCOCCNC(=O)CCCCC3SCC4NC(=O)NC43)c2)OC(CO)C(OC2OC(CO)C(O)C(OC3OC(CO)C(O)C(O)C3O)C2O)C1O` (stereo not drawn) [Example 21], the EC50 turned out to be 14.8 nM.

For the compound `CC(=O)NC1C(OCCCNC(=O)CCOCCOCCOCCOCCOCCOCCOCCOCCOCCOCCOCCOCCNC(=O)COc2ccc(-c3cc(OCC(=O)NCCOCCOCCOCCOCCOCCOCCOCCOCCOCCOCCOCCOCCC(=O)NCCCOC4OC(CO)C(OC5OC(CO)C(O)C(OC6OC(CO)C(O)C(O)C6O)C5O)C(O)C4NC(C)=O)cc(C(=O)NCCNC(=O)CCOCCOCCOCCOCCOCCOCCOCCOCCOCCOCCOCCOCCNC(=O)CCCCC4SCC5NC(=O)NC54)c3)cc2)OC(CO)C(OC2OC(CO)C(O)C(OC3OC(CO)C(O)C(O)C3O)C2O)C1O` (stereo not drawn) [Example 48], the EC50 was 25 nM.

For `CC(=O)NC1C(OCCCNC(=O)CCOCCOCCOCCOCCOCCOCCOCCOCCOCCOCCOCCOCCNC(=O)COc2ccc(-c3cc(OCC(=O)NCCOCCOCCOCCOCCOCCOCCOCCOCCOCCOCCOCCOCCC(=O)NCCCOC4OC(CO)C(OC5OC(CO)C(O)C(OC6OC(CO)C(O)C(O)C6O)C5O)C(O)C4NC(C)=O)cc(C(=O)NCCNC(=O)CCCCC4SCC5NC(=O)NC54)c3)cc2)OC(CO)C(OC2OC(CO)C(O)C(OC3OC(CO)C(O)C(O)C3O)C2O)C1O` (stereo not drawn) [Example 49], the EC50 was 26.4 nM.

For the origin of these results see patent publication US10953100B2, “Compounds and therapeutic uses thereof” (priority 2015, dated 2021).
